Test results from patent US9617256B2 (priority 2007, dated 2017).
In brackets after ≈: the same amount, converted by molar mass. Where two headings read alike, the source gives them in different places.

Assays:
[1] = tested on: ASAU001 (laboratory strain of S. aureus, ATCC29213); assay: MIC broth microdilution, ASAU001; type: cell-based; settings: Staphylococcus aureus, ATCC29213, read-out: MIC ASAU001
In short: (§1)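 MICs come from broth microdilution in cation-adjusted Mueller-Hinton broth, final inoculum 3×10^5–7×10^5 CFU/mL, 18-24 hours at 35° C. Levofloxacin and QC strains served as assay controls.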

[2] = tested on: APAE001 (ATCC27853); assay: MIC broth microdilution, APAE001; type: cell-based, P. aeruginosa; settings: Pseudomonas aeruginosa, ATCC27853, read-out: MIC APAE001, APAE001 (ATCC27853)
In short: as §1

[3] = tested on: APAE006 (strain of P. aeruginosa in which all efflux pumps are inactivated); assay: microbe, parasite or virus in culture; type: cell-based; settings: Pseudomonas aeruginosa, read-out: MIC APAE006, APAE006, all efflux pumps inactivated
In short: (§2)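 Two-fold drug dilutions in cation-adjusted MHB were inoculated to 3×10^5–7×10^5 CFU/mL and held at 35° C. for 18-24 hours (ambient air), following CLSI. APAE006 is an efflux-deficient P. aeruginosa.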

[4] = tested on: APAE006 in the presence of 8 micrograms per milliliter of polymyxin B nonapeptide; type: cell-based, P. aeruginosa; settings: APAE006 with 8 micrograms per milliliter polymyxin B nonapeptide
In short: as §2

[5] = tested on: AECO063 (ATCC25922 bearing an acrAB mutation); assay: microbe, parasite or virus in culture; type: cell-based, E. coli; settings: Escherichia coli, ATCC25922, read-out: MIC AECO063
In short: as §1

[6] = tested on: AECO001 (ATCC25922); assay: MIC broth microdilution, AECO001; type: cell-based, E. coli; settings: for MIC: Escherichia coli; for Ratio of MICs on AECO001 [Cpd (A = —CHCH3NH2)/Cpd (A = —C(CH3)2NH2)]: MIC of paired compound with A = —CHCH3NH2 divided by MIC of compound with A = —C(CH3)2NH2, n=2 data, pairs identical except for the A moiety
In short: as §1

[7] = tested on: AABA1060 (clinical isolate of Acinetobacter baumannii); assay: MIC broth microdilution, AABA1060; type: cell-based; settings: Acinetobacter baumannii, read-out: MIC AABA1060
In short: as §1

[8] = ATCC25922, read-out: MIC AECO001
[9] = ATCC25922, read-out: MIC AECO001 HSA AGP

## C[C@@H](N)[C@H](NC(=O)c1ccc(C#CC#Cc2ccc(CNCC(F)F)cc2)cc1)C(=O)NO [Example 86-1, N-((1S,2R)-2-Amino-1-hydroxycarbamoyl-propyl)-4-(4-{4-[(2,2-difluoro-ethylamino)-methyl]-phenyl}-buta-1,3-diynyl)-benzamide]
[1]
  MIC: 16 to 64 µg/mL (≈ 35.2 to 141 µM)
[2]
  MIC: < 2 µg/mL
[3]
  MIC: < 2 µg/mL
[4]
  MIC APAE006 + PMBN: A (MIC's of 2.0 μg/mL or less = A)
[5]
  MIC: < 2 µg/mL
[6]; [8]
  MIC: < 2 µg/mL
[6]; [9]
  MIC: 2 to 16 µg/mL (≈ 4.4 to 35.2 µM)
[7]
  MIC: 2 to 16 µg/mL (≈ 4.4 to 35.2 µM)

## CC(C)C#CC#Cc1ccc(C(=O)NC(C(=O)NO)[C@@H](C)N)cc1 (some centres unmarked) [Example 91-13]
[1]
  MIC: 2 to 16 µg/mL (≈ 6.11 to 48.9 µM)
[2]
  MIC: < 2 µg/mL
[3]
  MIC: < 2 µg/mL
[4]
  MIC APAE006 + PMBN: A (MIC's of 2.0 μg/mL or less = A)
[5]
  MIC: < 2 µg/mL
[6]; [8]
  MIC: < 2 µg/mL
[6]; [9]
  MIC: 2 to 16 µg/mL (≈ 6.11 to 48.9 µM)
[7]
  MIC: 2 to 16 µg/mL (≈ 6.11 to 48.9 µM)

## C[C@@H](N)[C@H](NC(=O)c1ccc(C#C/C=C/c2ccncc2)cc1)C(=O)NO [Example 106-3]
[1]
  MIC: 16 to 64 µg/mL (≈ 43.9 to 176 µM)
[2]
  MIC: < 2 µg/mL
[3]
  MIC: < 2 µg/mL
[4]
  MIC APAE006 + PMBN: A (MIC's of 2.0 μg/mL or less = A)
[5]
  MIC: < 2 µg/mL
[6]; [8]
  MIC: < 2 µg/mL
[6]; [9]
  MIC: 16 to 64 µg/mL (≈ 43.9 to 176 µM)
[7]
  MIC: 16 to 64 µg/mL (≈ 43.9 to 176 µM)

## C[C@@H](O)[C@H](NC(=O)c1ccc(C#C/C=C/c2ccncc2)cc1)C(=O)NO [Example 106-1, N-((1S,2R)-2-Hydroxy-1-hydroxycarbamoyl-propyl)-4-((E)-4-pyridin-4-yl-but-3-en-1-ynyl)-benzamide]
[1]
  MIC: 16 to 64 µg/mL (≈ 43.8 to 175 µM)
[2]
  MIC: 16 to 64 µg/mL (≈ 43.8 to 175 µM)
[3]
  MIC: < 2 µg/mL
[4]
  MIC APAE006 + PMBN: A (MIC's of 2.0 μg/mL or less = A)
[5]
  MIC: < 2 µg/mL
[6]; [8]
  MIC: < 2 µg/mL
[6]; [9]
  MIC: 2 to 16 µg/mL (≈ 5.47 to 43.8 µM)
[7]
  MIC: 16 to 64 µg/mL (≈ 43.8 to 175 µM)

## CC(C)(O)[C@H](NC(=O)c1ccc(C#Cc2ccccc2)cc1)C(=O)NO [Example 133-14]
[1]
  MIC: 16 to 64 µg/mL (≈ 45.4 to 182 µM)
[2]
  MIC: 2 to 16 µg/mL (≈ 5.68 to 45.4 µM)
[3]
  MIC: < 2 µg/mL
[4]
  MIC APAE006 + PMBN: A (MIC's of 2.0 μg/mL or less = A)
[5]
  MIC: < 2 µg/mL
[6]; [8]
  MIC: < 2 µg/mL
[6]; [9]
  MIC: < 2 µg/mL
[7]
  MIC: < 2 µg/mL

## C[C@@H](N)[C@H](NC(=O)c1ccc(C#CC(O)c2ccc(CO)cc2)cc1)C(=O)NO (some centres unmarked) [Example 137-18]
[1]
  MIC: 16 to 64 µg/mL (≈ 40.3 to 161 µM)
[2]
  MIC: 16 to 64 µg/mL (≈ 40.3 to 161 µM)
[3]
  MIC: 2 to 16 µg/mL (≈ 5.03 to 40.3 µM)
[4]
  MIC APAE006 + PMBN: B (MIC's of greater than 2.0 μg/mL to 16.0 μg/mL = B)
[5]
  MIC: 16 to 64 µg/mL (≈ 40.3 to 161 µM)
[6]; [8]
  MIC: 16 to 64 µg/mL (≈ 40.3 to 161 µM)
[6]; [9]
  MIC: 16 to 64 µg/mL (≈ 40.3 to 161 µM)
[7]
  MIC: 16 to 64 µg/mL (≈ 40.3 to 161 µM)

## C[C@@H](NCC(=O)NC[C@H](NC(=O)c1ccc(C#Cc2ccccc2)cc1)C(=O)NO)c1ccccc1 [Example 132-3]
[1]
  MIC: 16 to 64 µg/mL (≈ 33 to 132 µM)
[2]
  MIC: 16 to 64 µg/mL (≈ 33 to 132 µM)
[3]
  MIC: < 2 µg/mL
[4]
  MIC APAE006 + PMBN: A (MIC's of 2.0 μg/mL or less = A)
[5]
  MIC: < 2 µg/mL
[6]; [8]
  MIC: < 2 µg/mL
[6]; [9]
  MIC: 2 to 16 µg/mL (≈ 4.13 to 33 µM)
[7]
  MIC: 2 to 16 µg/mL (≈ 4.13 to 33 µM)

## CC(C)(O)[C@H](NC(=O)c1ccc(C#CC#Cc2ccccn2)cc1)C(=O)NO [Example 88-7]
[1]
  MIC: 16 to 64 µg/mL (≈ 42.4 to 170 µM)
[2]
  MIC: 2 to 16 µg/mL (≈ 5.3 to 42.4 µM)
[3]
  MIC: < 2 µg/mL
[4]
  MIC APAE006 + PMBN: A (MIC's of 2.0 μg/mL or less = A)
[5]
  MIC: < 2 µg/mL
[6]; [8]
  MIC: < 2 µg/mL
[6]; [9]
  MIC: 2 to 16 µg/mL (≈ 5.3 to 42.4 µM)
[7]
  MIC: 2 to 16 µg/mL (≈ 5.3 to 42.4 µM)

## CC(C)(N)[C@H](NC(=O)c1ccc(C#CC#Cc2cccnc2)cc1)C(=O)NO [Example 88-8]
[1]
  MIC: 16 to 64 µg/mL (≈ 42.5 to 170 µM)
[2]
  MIC: < 2 µg/mL
[3]
  MIC: < 2 µg/mL
[4]
  MIC APAE006 + PMBN: A (MIC's of 2.0 μg/mL or less = A)
[5]
  MIC: < 2 µg/mL
[6]; [8]
  MIC: < 2 µg/mL
[6]; [9]
  MIC: < 2 µg/mL
[6]
  Ratio of MICs on AECO001 [Cpd (A = —CHCH3NH2)/Cpd (A = —C(CH3)2NH2)]: 5.1
[7]
  MIC: 2 to 16 µg/mL (≈ 5.31 to 42.5 µM)

## C[C@@H](N)[C@H](NC(=O)c1ccc(C#CC#Cc2ccc(CN3CCS(=O)(=O)CC3)cc2)cc1)C(=O)NO [Example 86-6]
[1]
  MIC: 16 to 64 µg/mL (≈ 31.5 to 126 µM)
[2]
  MIC: 2 to 16 µg/mL (≈ 3.93 to 31.5 µM)
[3]
  MIC: < 2 µg/mL
[4]
  MIC APAE006 + PMBN: A (MIC's of 2.0 μg/mL or less = A)
[5]
  MIC: < 2 µg/mL
[6]; [8]
  MIC: < 2 µg/mL
[6]; [9]
  MIC: 2 to 16 µg/mL (≈ 3.93 to 31.5 µM)
[7]
  MIC: 2 to 16 µg/mL (≈ 3.93 to 31.5 µM)

## CC(C)(N)[C@H](NC(=O)c1ccc(/C=C/C#Cc2ccccc2)cc1)C(=O)NO [Example 114-16]
[1]
  MIC: 16 to 64 µg/mL (≈ 42.4 to 170 µM)
[2]
  MIC: 2 to 16 µg/mL (≈ 5.3 to 42.4 µM)
[3]
  MIC: < 2 µg/mL
[4]
  MIC APAE006 + PMBN: A (MIC's of 2.0 μg/mL or less = A)
[5]
  MIC: < 2 µg/mL
[6]; [8]
  MIC: < 2 µg/mL
[6]; [9]
  MIC: < 2 µg/mL
[7]
  MIC: < 2 µg/mL

## CC(C)/C=C/C#Cc1ccc(C(=O)N[C@H](C(=O)NO)C(C)(C)N)cc1 [Example 107-6]
[1]
  MIC: 16 to 64 µg/mL (≈ 46.6 to 186 µM)
[2]
  MIC: 2 to 16 µg/mL (≈ 5.82 to 46.6 µM)
[3]
  MIC: < 2 µg/mL
[4]
  MIC APAE006 + PMBN: A (MIC's of 2.0 μg/mL or less = A)
[5]
  MIC: < 2 µg/mL
[6]; [8]
  MIC: < 2 µg/mL
[6]; [9]
  MIC: 2 to 16 µg/mL (≈ 5.82 to 46.6 µM)
[7]
  MIC: < 2 µg/mL

## CC(C)(N)[C@H](NC(=O)c1ccc(C#CC#Cc2ccsc2)cc1)C(=O)NO [Example 88-15]
[1]
  MIC: 2 to 16 µg/mL (≈ 5.24 to 41.9 µM)
[2]
  MIC: < 2 µg/mL
[3]
  MIC: < 2 µg/mL
[4]
  MIC APAE006 + PMBN: A (MIC's of 2.0 μg/mL or less = A)
[5]
  MIC: < 2 µg/mL
[6]; [8]
  MIC: < 2 µg/mL
[6]; [9]
  MIC: < 2 µg/mL
[7]
  MIC: < 2 µg/mL

## CCCC#CC#Cc1ccc(C(=O)N[C@H](C(=O)NO)C(C)(C)N)cc1 [Example 91-9]
[1]
  MIC: 2 to 16 µg/mL (≈ 5.86 to 46.9 µM)
[2]
  MIC: < 2 µg/mL
[3]
  MIC: < 2 µg/mL
[4]
  MIC APAE006 + PMBN: A (MIC's of 2.0 μg/mL or less = A)
[5]
  MIC: < 2 µg/mL
[6]; [8]
  MIC: < 2 µg/mL
[6]; [9]
  MIC: < 2 µg/mL
[6]
  Ratio of MICs on AECO001 [Cpd (A = —CHCH3NH2)/Cpd (A = —C(CH3)2NH2)]: 5.2
[7]
  MIC: < 2 µg/mL

## NC[C@H](NC(=O)C#Cc1ccc(C#CCN2CCOCC2)cc1)C(=O)NO [Example 137-10]
[1]
  MIC: > 64 µg/mL
[2]
  MIC: > 64 µg/mL
[3]
  MIC: 16 to 64 µg/mL (≈ 43.2 to 173 µM)
[4]
  MIC APAE006 + PMBN: C (MIC's of greater than 16.0 μg/mL to 64.0 μg/mL = C)
[5]
  MIC: > 64 µg/mL
[6]; [8]
  MIC: > 64 µg/mL
[6]; [9]
  MIC: > 64 µg/mL
[7]
  MIC: > 64 µg/mL
